Data set [1] has as its system proteins of Nuc (nuclear fraction of liver homogenate). Nature of the data set: Covalent adduct formation of NSAIDs-AG with proteins of nuclear fraction (Nuc). The settings on record: 180 μM, 1 mg/mL, 6 h. The class given is binding, rat.
Details of data set [2]: method as in PMID 1642643. The settings on record: plasma at physiological pH and temperature; cited from earlier work.
Data set [3] has as its target T1, UGT1A1 (Homo sapiens, UniProt P22309).
T1 construct: purchased Corning, Inc
T1 sequence (P22309 26-533): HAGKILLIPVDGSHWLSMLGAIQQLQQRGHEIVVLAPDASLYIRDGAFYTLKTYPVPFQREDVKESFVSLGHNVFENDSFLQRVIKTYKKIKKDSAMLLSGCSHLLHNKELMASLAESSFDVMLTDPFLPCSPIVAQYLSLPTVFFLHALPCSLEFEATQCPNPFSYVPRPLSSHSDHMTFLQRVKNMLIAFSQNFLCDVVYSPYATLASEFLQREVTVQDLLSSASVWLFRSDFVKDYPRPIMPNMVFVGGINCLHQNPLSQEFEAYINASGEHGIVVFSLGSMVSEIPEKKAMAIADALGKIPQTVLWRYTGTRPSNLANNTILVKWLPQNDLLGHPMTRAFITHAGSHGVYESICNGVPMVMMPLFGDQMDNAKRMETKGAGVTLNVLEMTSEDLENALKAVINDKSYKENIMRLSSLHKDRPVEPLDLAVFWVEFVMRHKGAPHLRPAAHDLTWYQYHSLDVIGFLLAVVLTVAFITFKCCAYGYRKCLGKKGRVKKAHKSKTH
Nature of the data set: Covalent adduct formation of NSAIDs-AG with UGT1A1. As to conditions: R vs S diastereomer; 180 μM, UGT 3.4 μM, 6 h. In kind it is binding. As for the experimental part: The concentrations of UGT were set at 3.4 μM by the preliminary experiments on the linearity of covalent adduct formation. The covalent adduct formation of NSAIDs-AG with organelle proteins and UGT was determined according to previous reports on NSAIDs-AG with albumin with some modifications. After a deproteinization of the reaction mixture, methanol/diethyl ether (3:1) was added to the pellet. […] The concentrations of the parent NSAIDs were measured using liquid chromatography-tandem mass spectrometry (LC-MS/MS). Aliquots of 10 μL were injected into the LC-MS/MS system. The LC-MS/MS equipment consisted of an LC system (UltiMate 3000 series, Thermo Fisher Scientific, Inc.) and TSQ Endura Triple Quadrupole Mass Spectrometer with electrospray ionization (Thermo Fisher Scientific, Inc.). Finnigan Xcalibur software (Thermo Fisher Scientific, Inc.) was used for data recording and analysis. Analysis was further performed using a reversed-phase column (COSMOSIL 5C18-MSII, 2.0 mm × 150 mm, 5 μm; Nacalai Tesque, Inc.). The column temperature was set to 40 °C, and the autosampler was maintained at 10 °C. The mobile phase (A; 30% methanol in 8.5 mM ammonium formate and 0.0075% formic acid, and B; 90% methanol in 8.5 mM ammonium formate and 0.0075% formic acid) was pumped at a flow rate of 0.2 mL/min. The initial mobile phase composition was maintained at 30% mobile phase B for 1 min, changed linearly to 90% mobile phase B from 1 to 8 min, maintained for 1 min, returned to 30% mobile phase B from 9 to 10 min, and maintained for 1 min for chromatographic column equilibrium. The MS scan was operated in positive ionization mode for DIC, MEF, ZOM, KET, and NAP, or negative ionization mode, for FLU. […] The concentrations of NSAIDs were determined from a single-point calibration in every assay for NSAIDs after confirmation of linearity between area and concentrations of NSAIDs.

Data set [4] addresses T2, UGT2B4 (Homo sapiens, UniProt P06133).
T2 construct: purchased Corning, Inc
T2 sequence (P06133 24-528): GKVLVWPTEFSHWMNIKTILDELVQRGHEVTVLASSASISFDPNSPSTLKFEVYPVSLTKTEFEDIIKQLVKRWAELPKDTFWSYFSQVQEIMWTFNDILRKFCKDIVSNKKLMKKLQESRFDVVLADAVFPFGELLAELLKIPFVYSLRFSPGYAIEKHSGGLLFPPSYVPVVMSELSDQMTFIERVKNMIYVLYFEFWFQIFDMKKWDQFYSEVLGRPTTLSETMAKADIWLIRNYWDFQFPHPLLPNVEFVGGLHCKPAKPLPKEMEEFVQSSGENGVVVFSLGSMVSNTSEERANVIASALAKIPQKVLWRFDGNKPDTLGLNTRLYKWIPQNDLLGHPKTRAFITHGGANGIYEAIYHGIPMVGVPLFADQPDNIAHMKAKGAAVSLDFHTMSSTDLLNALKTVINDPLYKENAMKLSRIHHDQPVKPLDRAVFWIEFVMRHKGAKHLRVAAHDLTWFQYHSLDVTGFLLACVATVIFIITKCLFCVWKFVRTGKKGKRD
Nature of the data set: Covalent adduct formation of NSAIDs-AG with UGT2B4. The class given is binding. The settings on record: 180 μM, UGT 3.4 μM, 6 h. How it is done: (§1) The concentrations of UGT were set at 3.4 μM by the preliminary experiments on the linearity of covalent adduct formation. The covalent adduct formation of NSAIDs-AG with organelle proteins and UGT was determined according to previous reports on NSAIDs-AG with albumin with some modifications. After a deproteinization of the reaction mixture, methanol/diethyl ether (3:1) was added to the pellet. […] The concentrations of the parent NSAIDs were measured using liquid chromatography-tandem mass spectrometry (LC-MS/MS). Aliquots of 10 μL were injected into the LC-MS/MS system. The LC-MS/MS equipment consisted of an LC system (UltiMate 3000 series, Thermo Fisher Scientific, Inc.) and TSQ Endura Triple Quadrupole Mass Spectrometer with electrospray ionization (Thermo Fisher Scientific, Inc.). Finnigan Xcalibur software (Thermo Fisher Scientific, Inc.) was used for data recording and analysis. Analysis was further performed using a reversed-phase column (COSMOSIL 5C18-MSII, 2.0 mm × 150 mm, 5 μm; Nacalai Tesque, Inc.). The column temperature was set to 40 °C, and the autosampler was maintained at 10 °C. The mobile phase (A; 30% methanol in 8.5 mM ammonium formate and 0.0075% formic acid, and B; 90% methanol in 8.5 mM ammonium formate and 0.0075% formic acid) was pumped at a flow rate of 0.2 mL/min. The initial mobile phase composition was maintained at 30% mobile phase B for 1 min, changed linearly to 90% mobile phase B from 1 to 8 min, maintained for 1 min, returned to 30% mobile phase B from 9 to 10 min, and maintained for 1 min for chromatographic column equilibrium. The MS scan was operated in positive ionization mode for DIC, MEF, ZOM, KET, and NAP, or negative ionization mode, for FLU. The conditions for electrospray ionization were set at 3500 V spray voltage for positive ionization mode and 2500 V spray voltage for negative ionization mode at 400 °C capillary temperature, and 300 °C vaporizer temperature with 40 arbitrary units of nitrogen sheath gas and 10 arbitrary units of auxiliary gas. The MS scan was operated in the positive or negative ionization mode. The selected reaction monitoring (SRM) mode was used, with argon as the collision gas at 1.5 mTorr. The mass resolution was set at 0.7 full-width at half-height (unit resolution). SRM transitions (precursor and product ions) were mass to charge ratios of (m/z) 296 > 214 for DIC (positive ionization mode), 294 > 250 for DIC (negative ionization mode), 242 > 224 for MEF, 292 > 139 for ZOM, 243 > 198 for R- and S-FLU, 255 > 209 for R- and S-KET, 231 > 185 for R- and S-NAP, and 302 > 220 for DIC-d4. The collision energies were 15 V for DIC (negative ionization mode), ZOM, MEF, FLU, KET, and NAP; 35 V for DIC (positive ionization mode); and DIC-d4. The concentrations of NSAIDs were determined from a single-point calibration in every assay for NSAIDs after confirmation of linearity between area and concentrations of NSAIDs.

For data set [5], the system named is proteins of Mit (mitochondrial fraction of liver homogenate). Nature of the data set: Covalent adduct formation of NSAIDs-AG with proteins of mitochondrial fraction (Mit). The class given is binding, rat. As to conditions: 180 μM, 1 mg/mL, 6 h.
Data set [6] concerns proteins of Cyt (cytosolic fraction of liver homogenate). As to the kind of experiment: Covalent adduct formation of NSAIDs-AG with proteins of cytosolic fraction (Cyt). In kind it is binding, rat. The settings on record: 180 μM, 1 mg/mL, 6 h.
The target of data set [7] is T3, UGT2B7 (Homo sapiens, UniProt P16662).
T3 construct: purchased Corning, Inc
T3 sequence (P16662 24-529): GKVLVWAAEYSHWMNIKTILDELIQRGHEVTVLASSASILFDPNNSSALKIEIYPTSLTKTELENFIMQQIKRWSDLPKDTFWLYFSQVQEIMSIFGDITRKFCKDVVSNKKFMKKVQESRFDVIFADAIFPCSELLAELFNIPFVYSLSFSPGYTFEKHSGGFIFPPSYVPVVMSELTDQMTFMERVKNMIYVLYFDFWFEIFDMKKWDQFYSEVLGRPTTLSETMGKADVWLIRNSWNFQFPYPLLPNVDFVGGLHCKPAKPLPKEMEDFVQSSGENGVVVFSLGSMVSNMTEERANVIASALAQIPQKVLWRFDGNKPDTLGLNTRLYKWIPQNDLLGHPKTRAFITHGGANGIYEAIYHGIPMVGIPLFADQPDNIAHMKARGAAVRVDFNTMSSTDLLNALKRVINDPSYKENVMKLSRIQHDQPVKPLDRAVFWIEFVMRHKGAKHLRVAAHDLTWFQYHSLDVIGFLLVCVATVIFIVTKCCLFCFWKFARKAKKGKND
As to the kind of experiment: Covalent adduct formation of NSAIDs-AG with UGT2B7. In kind it is binding. The settings on record: 180 μM, UGT 3.4 μM, 6 h. As for the experimental part:
as §1

Details of data set [8]: method as in PMID 9571227. The settings on record: cited from earlier work.

Structures are written as SMILES.

Consider `CC(C(=O)OC1OC(C(=O)O)C(O)C(O)C1O)c1cccc(C(=O)c2ccccc2)c1` (stereo not shown) [R-KET-AG], for which the “amount of covalent adducts with Nuc proteins compared with the other diastereomer (S-KET-AG)” value in data set [1] is “higher amounts of covalent adducts”. For the same compound, the “hydrolysis half-life in plasma compared with S-KET-AG” value in data set [2] is listed as “shorter”. Moreover, in data set [3], the “covalent adduct formation with UGT1A1 compared with the other diastereomer” value was “significantly more covalent adducts”. The “amounts of covalent adducts with UGT2B (UGT2B4) relative to UGT1A isoforms” value in data set [4] is given as “relatively higher amounts of covalent adducts”. Besides, the “covalent adduct formation with UGT2B4 compared with the other diastereomer” value in data set [4] (R vs S diastereomer) is recorded as “significantly more covalent adducts”. Moreover, the “amount of covalent adducts with Mit proteins compared with the other diastereomer (S-KET-AG)” value in data set [5] is “higher amounts of covalent adducts”. In addition, the “amount of covalent adducts with Cyt proteins compared with the other diastereomer (S-KET-AG)” value in data set [6] is given as “higher amounts of covalent adducts”. The “amounts of covalent adducts with UGT2B (UGT2B7) relative to UGT1A isoforms” value in data set [7] is “relatively higher amounts of covalent adducts”. Further, the “covalent adduct formation with UGT2B7 compared with the other diastereomer” value in data set [7] (R vs S diastereomer) is given as “significantly more covalent adducts”. Moreover, the “acyl migration rate compared with S-KET-AG” value in data set [8] is on record as “higher acyl migration rate”.
